Consider three compounds from patent publication US12630856B2, “Identification of host-targeting modulators of bacterial uptake and assay for quantifying intracellular bacteria” (priority 2020, dated 2026).

What all share (type): cell-based
For assay [1], the system named is Escherichia coli uptake by RAW 264.7 macrophages. Briefly: CFU-less assay (CLA) screen of 2,400 approved drugs for modulators of bacterial uptake.
The test system of assay [2] is bacterial uptake. Briefly: CFU plating to confirm uptake enhancement. Here is the method: CFU plating was performed to confirm the enhancement.
Assay [3] relates to intracellular and extracellular bacterial strains in RAW 264.7 macrophages. Briefly: Uptake and intracellular survival of bacterial strains in RAW 264.7 macrophages (FIG. 21). The text has this: This confirms the results of the screen and expands potential uses. Quinacrine was previously known as an antiparasitic, an anti-inflammatory agent, intrapleural sclerosing agent, a pneumothorax prophylaxis, Creutzfeldt-Jakob disease (CJI)) therapy, and as an anticancer agent (FIG. 21).

Assay [4] has as its system Pseudomonas species. Briefly: Attenuation of infection by Pseudomonas.
Assay [5] deals with Salmonella species. Briefly: Attenuation of infection by Salmonella.
Assay [6] concerns Klebsiella species. Briefly: Attenuation of infection by Klebsiella.
For assay [7], the system named is Acinetobacter species. Briefly: Attenuation of infection by Acinetobacter.
In assay [8] the test system is E. coli. Briefly: Axenic growth of bacteria (CFU-less assay / optical density). The settings on record: varying amounts of compound, FIG. 19. The text has this:
In some embodiments, methods for measuring bacterial growth rate in axenic culture are described. The methods comprise: • (a) expressing in the bacteria a fluorescent protein; • (b) growing the bacteria in axenic culture; and • (c) measuring fluorescence in the culture at regular intervals.
The CFU-less assay can reliably detect compound cytotoxicity in axenic medium. The compound(s) of interest were combined with either the host cell or the pathogen in an axenic medium to analyze toxicity of the compound(s) on the host cell or pathogen. The graphs below show an example of how the compounds from the screen affect axenic growth of E. coli. The effects of the compounds on axenic growth of E. coli were minimal.

Counter-ions that a name gives are not always drawn.

For `CO[C@H]1C[C@H](O[C@H]2[C@H](C)O[C@@H](O[C@@H]3/C(C)=C/C[C@@H]4C[C@@H](C[C@]5(C=C[C@H](C)[C@@H](C6CCCCC6)O5)O4)OC(=O)[C@@H]4C=C(C)[C@@H](O)[C@H]5OC/C(=C\C=C\[C@@H]3C)[C@]54O)C[C@@H]2OC)O[C@@H](C)[C@@H]1O` [Doramectin], the “bacterial uptake in the presence of the compound (FIG. 2)” value in assay [1] is listed as “increase in bacterial uptake”. For the same compound, in assay [2], the “confirmation of uptake enhancement by CFU plating” value was “enhancement”.
Regarding `CCN(CC)CCCC(C)Nc1c2ccc(Cl)cc2nc2ccc(OC)cc12` (stereo not shown) [Quinacrine hydrochloride], in assay [1] (screen of 2,400 compounds), the “intracellular load of bacteria” value is recorded as “decreases the intracellular load of bacteria”. The “intracellular survival of both intracellular and extracellular bacterial strains” value in assay [3] is recorded as “inhibitory effect”. Besides, the “uptake of both intracellular and extracellular bacterial strains (dT)” value in assay [3] (FIG. 21) is “inhibitory effect (increased dT)”. In addition, the “infection by Pseudomonas species” value in assay [4] is listed as “attenuated infection”. In addition, in assay [5], the “infection by Salmonella species” value is on record as “attenuated infection”. In assay [6], the “infection by Klebsiella species” value is “attenuated infection”. In addition, the “infection by Acinetobacter species” value in assay [7] is on record as “attenuated infection”.
As to Polymyxin B sulfate, the “gram-negative bacterial growth in axenic culture” value in assay [8] is listed as “inhibition of gram-negative bacterial growth”.
